# Reference: patent US9187472B2 (AbbVie Inc., priority 2012, dated 2015)
# Experiments:
# [1] = target: NAMPT (human, recombinant, C-terminally His-tagged) (Homo sapiens, UniProt P43490); experiment: Time-Resolved Fluorescence Resonance Energy Transfer (TR-FRET) Binding Assay of NAMPT; conditions: without substrates; 6.8 nM NAMPT, 200 nM probe, 3 hours equilibration
# Outline: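 In a displacement format, the nicotinamide-site tracer at 200 nM competed with test compound for 6.8 nM enzyme detected via 1 nM terbium anti-His antibody; incubation lasted 3 hours at room temperature in 50 mM HEPES pH 7.5, 100 mM NaCl. Normalized 520/495 nm emission ratios gave IC50 values.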
# PC3 cells = experiment: NAMPT Cell Proliferation Assay; type: cell-based; conditions: Homo sapiens, PC-3, 120 h, 5 days incubation, cell viability by Cell Titer Glo
# Outline: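 Cell Titer Glo viability after 5-day exposure (37° C, 5% CO2); PC3, 500 cells/well, RPMI + 10% heat-inactivated FBS, overnight attachment before dosing. Dose range 10 μM to 1×10^−5 μM, 10-fold steps. IC50 = sigmoidal fit of % inhibition.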
# NAMPT = NAMPT (Homo sapiens, UniProt P43490); experiment: TR-FRET Binding Assay of NAMPT with PRPP; conditions: with 200 μM PRPP and 2.5 mM ATP; 2 nM NAMPT, 2 nM probe, 16 hours equilibration
# Outline: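 Substrate-containing variant: 200 μM PRPP plus 2.5 mM ATP are added to 2 nM NAMPT and 2 nM probe, with a 16-hour incubation ahead of TR-FRET reading.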
# NAMPT, sequence (P43490 whole entry): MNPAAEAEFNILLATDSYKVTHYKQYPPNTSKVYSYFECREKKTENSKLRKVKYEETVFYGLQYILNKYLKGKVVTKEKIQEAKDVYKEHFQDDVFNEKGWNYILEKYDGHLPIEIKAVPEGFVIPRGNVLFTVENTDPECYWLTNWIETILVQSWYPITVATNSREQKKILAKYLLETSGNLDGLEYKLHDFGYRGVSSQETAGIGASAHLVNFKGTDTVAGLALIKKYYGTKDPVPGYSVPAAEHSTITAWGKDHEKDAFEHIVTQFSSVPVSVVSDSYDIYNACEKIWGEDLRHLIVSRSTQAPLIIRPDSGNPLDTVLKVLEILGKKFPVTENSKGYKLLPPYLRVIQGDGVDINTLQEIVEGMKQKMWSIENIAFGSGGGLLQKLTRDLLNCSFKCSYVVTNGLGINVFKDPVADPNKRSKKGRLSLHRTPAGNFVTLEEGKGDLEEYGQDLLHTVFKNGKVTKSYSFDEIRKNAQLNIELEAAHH
# NAMPT (human, recombinant, C-terminally His-tagged), sequence (P43490 whole entry): as above
SMILES,IC50 [1] [nM],IC50 (PC3 cells) [nM],IC50 (NAMPT) [nM]
"O=C(NCc1ccn2ccnc2c1)Nc1ccc(C2CCN(C(=O)c3cccc(F)c3)CC2)cc1 [Example 720, 1-{4-[1-(3-fluorobenzoyl)piperidin-4-yl]phenyl}-3-(imidazo[1,2-a]pyridin-7-ylmethyl)urea]",36.7,5.82,0.181
"O=C(NCc1ccn2ccnc2c1)Nc1ccc(C2CCN(C(=O)c3ccc(F)cc3)CC2)cc1 [Example 721, 1-{4-[1-(4-fluorobenzoyl)piperidin-4-yl]phenyl}-3-(imidazo[1,2-a]pyridin-7-ylmethyl)urea]",125,30.7,1.21
"O=C(NCc1ccn2ccnc2c1)Nc1ccc(C2CCN(C(=O)c3ccc(F)c(F)c3)CC2)cc1 [Example 723, 1-{4-[1-(3,4-difluorobenzoyl)piperidin-4-yl]phenyl}-3-(imidazo[1,2-a]pyridin-7-ylmethyl)urea]",154,71.6,0.932
"O=C(NCc1ccn2ccnc2c1)Nc1ccc(C2CCN(C(=O)c3cc(F)cc(F)c3)CC2)cc1 [Example 724, 1-{4-[1-(3,5-difluorobenzoyl)piperidin-4-yl]phenyl}-3-(imidazo[1,2-a]pyridin-7-ylmethyl)urea]",161,63.2,0.992
"O=C(NCc1ccn2ccnc2c1)Nc1ccc(C2CCN(C(=O)c3cc(F)ccc3F)CC2)cc1 [Example 725, 1-{4-[1-(2,5-difluorobenzoyl)piperidin-4-yl]phenyl}-3-(imidazo[1,2-a]pyridin-7-ylmethyl)urea]",19.6,6,0.747
"O=C(NCc1ccn2ccnc2c1)c1ccc(C2CCN(C(=O)Cc3ccccc3)C2)cc1 (stereo not drawn) [Example 731, N-(imidazo[1,2-a]pyridin-7-ylmethyl)-4-[1-(phenylacetyl)pyrrolidin-3-yl]benzamide]",223,50,0.391

# Next, values leading:
IC50 [1] [nM],IC50 (PC3 cells) [nM],IC50 (NAMPT) [nM],SMILES
39.4,3.88,1.01,"O=C(NCc1ccn2ccnc2c1)Nc1ccc(C2CCN(C(=O)c3ccc(F)cc3F)CC2)cc1 [Example 722, 1-{4-[1-(2,4-difluorobenzoyl)piperidin-4-yl]phenyl}-3-(imidazo[1,2-a]pyridin-7-ylmethyl)urea]"
251,71.9,0.534,"O=C(NCc1ccn2ccnc2c1)Nc1ccc(OC2CCN(C(=O)c3cccc(F)c3)CC2)cc1 [Example 726, 1-(4-{[1-(3-fluorobenzoyl)piperidin-4-yl]oxy}phenyl)-3-(imidazo[1,2-a]pyridin-7-ylmethyl)urea]"
166,58.2,0.783,"O=C(NCc1ccn2ccnc2c1)Nc1ccc(OC2CCN(C(=O)c3ccc(F)cc3F)CC2)cc1 [Example 727, 1-(4-{[1-(2,4-difluorobenzoyl)piperidin-4-yl]oxy}phenyl)-3-(imidazo[1,2-a]pyridin-7-ylmethyl)urea]"
140,21,0.496,"O=C(NCc1ccn2ccnc2c1)Nc1ccc(OC2CCN(C(=O)c3cc(F)ccc3F)CC2)cc1 [Example 728, 1-(4-{[1-(2,5-difluorobenzoyl)piperidin-4-yl]oxy}phenyl)-3-(imidazo[1,2-a]pyridin-7-ylmethyl)urea]"
428,45.9,0.765,"O=C(NCc1ccn2ccnc2c1)Nc1ccc(OC2CCN(C(=O)c3ccc(F)c(F)c3)CC2)cc1 [Example 729, 1-(4-{[1-(3,4-difluorobenzoyl)piperidin-4-yl]oxy}phenyl)-3-(imidazo[1,2-a]pyridin-7-ylmethyl)urea]"
489,29.5,0.847,"O=C(NCc1ccn2ccnc2c1)Nc1ccc(OC2CCN(C(=O)c3cc(F)cc(F)c3)CC2)cc1 [Example 730, 1-(4-{[1-(3,5-difluorobenzoyl)piperidin-4-yl]oxy}phenyl)-3-(imidazo[1,2-a]pyridin-7-ylmethyl)urea]"
